Data as given in article PMC8854719, “Phase 1A/1B dose-escalation and -expansion study to evaluate the safety, pharmacokinetics, food effects and antitumor activity of pamiparib in advanced solid tumours” (British Journal of Cancer, 2021).

Assay: Safety and tolerability: adverse events, dose-limiting toxicities, MTD, RP2D (Phase 1A/1B)
Format: in vivo
Procedure: This was an open-label, Phase 1, dose-escalation/dose-expansion study, conducted across six study centres in Australia. The dose-escalation phase evaluated twice-daily (BID) and once-daily (QD) dosing, and the dose-expansion phase evaluated the BID RP2D from the dose-escalation phase and food effects (Fig. 1). The food-effects cohort comprised two sequences: fast followed by fed (sequence 1) and fed followed by fast (sequence 2). […] The decision to proceed to the next dose cohort was determined by the Safety Monitoring Committee and followed a modified 3 + 3 escalation scheme. […] When ≥2 DLTs occurred in the first 23 days of a dose level, the next lower dose level was declared the MTD. Safety was monitored and DLTs were assessed in all dose cohorts. […] The food-effects cohort investigated the effects of food on the PK of pamiparib in patients with advanced solid tumours.
The QD dosing regimen was added as an amendment to the protocol with the purpose of exploring the feasibility of a more convenient regimen.
Safety and tolerability were assessed throughout the study by monitoring adverse events (AEs), serious AEs, clinical laboratory measurements and physical examinations. Adverse events were categorised according to their severity (National Cancer Institute Common Terminology Criteria for Adverse Events v4.03) and relationship to the study treatment.

[1] = 101 total patients, dose escalation and expansion
[2] = BID dose-escalation (2.5–120 mg), 45 patients
[3] = BID dose-escalation, 45 patients
[4] = Dose Escalation and Dose Expansion (N=101)
[5] = Total BID dose escalation (N = 45)
[6] = Total QD dose escalation (N=19)

## C[C@]12CCCN1CC1=NNC(=O)c3cc(F)cc4[nH]c2c1c34 [pamiparib]
101 patients
  Serious AE: nausea: 4.0%
  Serious AE: pleural effusion: 3.0%
  Serious AE: pneumonia: 3.0%
  Serious AE: small intestinal obstruction: 5.0%
101 patients (44 patients)
  Serious AEs: 43.6%
101 total patients
  Anaemia leading to dose reduction/interruption: 21.8%
  Haematologic AEs leading to dose reduction/interruption: 23.8%
  Neutropenia leading to dose reduction/interruption: 5.9%
  Thrombocytopenia leading to dose reduction/interruption: 4.0%
101 total patients (six patients)
  Adverse events leading to treatment discontinuation: 5.9%
[1]
  Anaemia, Grades ≥3: 24.8%
  Anaemia, all Grades: 35.6%
  Diarrhoea, Grades ≥3: 2.0%
  Diarrhoea, all Grades: 32.7%
  Fatigue, Grades ≥3: 3.0%
  Fatigue, all Grades: 48.5%
  Increased alanine aminotransferase, Grades ≥3: 5.0%
  Increased alanine aminotransferase, all Grades: 11.9%
  Nausea, Grades ≥3: 4.0%
  Nausea, all Grades: 69.3%
  Neutropenia, Grades ≥3: 5.9%
  Neutropenia, all Grades: 9.9%
  Vomiting, Grades ≥3: 1.0%
  Vomiting, all Grades: 31.7%
120-mg BID dosage cohort
  Treatment-related grade ≥3 AEs: 60.0%
160-mg QD dosage cohort
  Treatment-related grade ≥3 AEs: 63.6%
BID dosage cohort, dose escalation (N=45)
  Patients with a grade ≥3 AE: 62.2%
[2]
  Anaemia, AE: 33.3%
  Diarrhoea, AE: 28.9%
  Fatigue, AE: 33.3%
  Nausea, AE: 64.4%
  Vomiting, AE: 35.6%
[3]
  Treatment-related AEs leading to dose interruptions: 31.1%
  Treatment-related AEs leading to dose reductions: 6.7%
BID dosing
  Maximum tolerated dose (MTD): 80 mg
  Recommended Phase 2 dose (RP2D): 60 mg
[4]
  Abdominal pain, All Grades: 17 (16.8) n (%)
  Abdominal pain, Grade ≥3: 1 (1.0) n (%)
  Anemia, All Grades: 36 (35.6) n (%)
  Anemia, Grade ≥3: 25 (24.8) n (%)
  Constipation, All Grades: 21 (20.8) n (%)
  Constipation, Grade ≥3: 0 n (%)
  Decreased appetite, All Grades: 23 (22.8) n (%)
  Decreased appetite, Grade ≥3: 0 n (%)
  Diarrhea, All Grades: 33 (32.7) n (%)
  Diarrhea, Grade ≥3: 2 (2.0) n (%)
  Fatigue, All Grades: 49 (48.5) n (%)
  Fatigue, Grade ≥3: 3 (3.0) n (%)
  Headache, All Grades: 12 (11.9) n (%)
  Headache, Grade ≥3: 0 n (%)
  Increased alanine aminotransferase, All Grades: 12 (11.9) n (%)
  Increased alanine aminotransferase, Grade ≥3: 5 (5.0) n (%)
  Increased aspartate aminotransferase, All Grades: 10 (9.9) n (%)
  Increased aspartate aminotransferase, Grade ≥3: 3 (3.0) n (%)
  Nausea, All Grades: 70 (69.3) n (%)
  Nausea, Grade ≥3: 4 (4.0) n (%)
  Neutropenia, All Grades: 10 (9.9) n (%)
  Neutropenia, Grade ≥3: 6 (5.9) n (%)
  Upper respiratory tract infection, All Grades: 12 (11.9) n (%)
  Upper respiratory tract infection, Grade ≥3: 0 n (%)
  Urinary tract infection, All Grades: 14 (13.9) n (%)
  Urinary tract infection, Grade ≥3: 1 (1.0) n (%)
  Vomiting, All Grades: 32 (31.7) n (%)
  Vomiting, Grade ≥3: 1 (1.0) n (%)
QD dosage cohort, dose escalation (N=19)
  Patients with a grade ≥3 AE: 73.7%
QD dosage group (N=19)
  Treatment-related AEs leading to dose interruptions: 57.9%
  Treatment-related AEs leading to dose reductions: 5.3%
QD dosage group overall (N=19)
  Diarrhea, AE: 47.4%
  Fatigue, AE: 68.4%
  Nausea, AE: 73.7%
QD dosing
  Maximum tolerated dose (MTD): 160 mg
  Recommended Phase 2 dose (RP2D): 120 mg
[5]
  Abdominal pain, AE of any grade: 9 (20.0) n (%)
  Anaemia, AE of any grade: 15 (33.3) n (%)
  Ascites, AE of any grade: 5 (11.1) n (%)
  Back pain, AE of any grade: 4 (8.9) n (%)
  Constipation, AE of any grade: 8 (17.8) n (%)
  Cough, AE of any grade: 4 (8.9) n (%)
  Decreased appetite, AE of any grade: 5 (11.1) n (%)
  Diarrhoea, AE of any grade: 13 (28.9) n (%)
  Dose-limiting toxicity: 4 (8.9) n (%)
  Dyspnoea, AE of any grade: 3 (6.7) n (%)
  Fatigue, AE of any grade: 15 (33.3) n (%)
  Headache, AE of any grade: 4 (8.9) n (%)
  Hypoalbuminemia, AE of any grade: 3 (6.7) n (%)
  Hypomagnesemia, AE of any grade: 4 (8.9) n (%)
  Hypophosphatemia, AE of any grade: 3 (6.7) n (%)
  Increased AST, AE of any grade: 3 (6.7) n (%)
  Muscle spasms, AE of any grade: 4 (8.9) n (%)
  Nausea, AE of any grade: 29 (64.4) n (%)
  Neutropenia, AE of any grade: 6 (13.3) n (%)
  Non-cardiac chest pain, AE of any grade: 3 (6.7) n (%)
  Pain in extremity, AE of any grade: 3 (6.7) n (%)
  Peripheral sensory neuropathy, AE of any grade: 3 (6.7) n (%)
  Pleural effusion, AE of any grade: 4 (8.9) n (%)
  Pyrexia, AE of any grade: 4 (8.9) n (%)
  Treatment-emergent AE: 45 (100.0) n (%)
  Treatment-emergent AE: Grade 3 or higher: 28 (62.2) n (%)
  Treatment-emergent AE: Leading to death: 4 (8.9) n (%)
  Treatment-emergent AE: Leading to dose interruption: 27 (60.0) n (%)
  Treatment-emergent AE: Leading to dose modification: 27 (60.0) n (%)
  Treatment-emergent AE: Leading to dose reduction: 3 (6.7) n (%)
  Treatment-emergent AE: Leading to treatment discontinuation: 3 (6.7) n (%)
  Treatment-emergent AE: Serious: 25 (55.6) n (%)
  Treatment-related AE: 35 (77.8) n (%)
  Treatment-related AE: Grade 3 or higher: 10 (22.2) n (%)
  Treatment-related AE: Leading to death: 0 (0.0) n (%)
  Treatment-related AE: Leading to dose interruption: 14 (31.1) n (%)
  Treatment-related AE: Leading to dose modification: 14 (31.1) n (%)
  Treatment-related AE: Leading to dose reduction: 3 (6.7) n (%)
  Treatment-related AE: Leading to treatment discontinuation: 2 (4.4) n (%)
  Treatment-related AE: Serious: 3 (6.7) n (%)
  Upper respiratory tract infection, AE of any grade: 8 (17.8) n (%)
  Urinary tract infection, AE of any grade: 8 (17.8) n (%)
  Vomiting, AE of any grade: 16 (35.6) n (%)
[6]
  Dose-limiting toxicity: 1 (5.3) n (%)
  Treatment-emergent AE: 19 (100.0) n (%)
  Treatment-emergent AE: Grade 3 or higher: 14 (73.7) n (%)
  Treatment-emergent AE: Leading to death: 0 (0.0) n (%)
  Treatment-emergent AE: Leading to dose interruption: 13 (68.4) n (%)
  Treatment-emergent AE: Leading to dose modification: 13 (68.4) n (%)
  Treatment-emergent AE: Leading to dose reduction: 1 (5.3) n (%)
  Treatment-emergent AE: Leading to treatment discontinuation: 2 (10.5) n (%)
  Treatment-emergent AE: Serious: 6 (31.6) n (%)
  Treatment-related AE: 17 (89.5) n (%)
  Treatment-related AE: Grade 3 or higher: 10 (52.6) n (%)
  Treatment-related AE: Leading to death: 0 (0.0) n (%)
  Treatment-related AE: Leading to dose interruption: 11 (57.9) n (%)
  Treatment-related AE: Leading to dose modification: 11 (57.9) n (%)
  Treatment-related AE: Leading to dose reduction: 1 (5.3) n (%)
  Treatment-related AE: Leading to treatment discontinuation: 2 (10.5) n (%)
  Treatment-related AE: Serious: 1 (5.3) n (%)
